Measured values as given in patent publication US20190374563A1, “TREATMENT OF KLEBSIELLA PNEUMONIAE INFECTIONS WITH ANTIBACTERIAL AMINOGLYCOSIDE COMPOUNDS” (Achaogen, Inc., priority 2009, published 2019).
≈ marks a conversion by molar mass, not a printed value. Read-outs that look alike come from different tables or passages of the source.

Legend:
[1] = test system: P. aeruginosa ATCC 27853 (APAE001); test: MIC assay, CLSI broth microdilution; type: cell-based; conditions: Pseudomonas aeruginosa
Procedure: (§1) Minimum inhibitory concentrations (MIC) were determined by reference Clinical and Laboratory Standards Institute (CLSI) broth microdilution methods per M7-A7 [2006]. Quality control ranges utilizing E. coli ATCC 25922, P. aeruginosa ATCC 27853 and S. aureus ATCC 29213, and interpretive criteria for comparator agents were as published in CLSI M100-S17 [2007]. Briefly, serial two-fold dilutions of the test compounds were prepared at 2× concentration in Mueller Hinton Broth. The compound dilutions were mixed in 96-well assay plates in a 1:1 ratio with bacterial inoculum. The inoculum was prepared by suspension of a colony from an agar plate that was prepared the previous day. Bacteria were suspended in sterile saline and added to each assay plate to obtain a final concentration of 5×10^5 CFU/mL. The plates were incubated at 35° C. for 20 hours in ambient air.

[2] = test system: E. coli ATCC 25922 (AECO001); test: MIC assay, CLSI broth microdilution; type: cell-based; parameters: MIC AECO001: unit not given here; conditions: for MIC: Escherichia coli
Procedure: as §1

[3] = ATCC27853, read-out: MIC APAE001
[4] = ATCC25922, read-out: MIC AECO001

Compound | MIC [1, 3] [µg/mL] | MIC [2, 4] [µg/mL] | MIC ([1]; Table 1, APAE001 is ATCC27853, read-out: MIC APAE001) [µg/mL] | MIC ([2]; Table 1, AECO001 is ATCC25922, read-out: MIC AECO001) [µg/mL] | MIC AECO001 ([2]; Table 3, E. coli ATCC25922)
CN[C@@H]1[C@@H](O)[C@@H](O[C@@H]2[C@@H](O)[C@H](O[C@H]3OC(CNC[C@H]4C[C@H](N)C4)=CC[C@H]3N)[C@@H](N)C[C@H]2NC(=O)[C@@H](O)CN)OC[C@]1(C)O [Example 59, 6′-(Methyl-trans-3-amino-cyclobutyl)-1-(3-amino-2(S)-hydroxy-propionyl)-sisomicin] | 1 to 16 (≈ 1.62 to 25.9 µM) | < 1 | – | – | –
CN[C@@H]1[C@@H](O)[C@@H](O[C@@H]2[C@@H](O)[C@H](O[C@H]3OC(CNC[C@H]4C[C@H](N)C4)=CC[C@H]3N)[C@@H](N)C[C@H]2NC(=O)C2(O)CC(N)C2)OC[C@]1(C)O (some centres unmarked) [Example 60] | 1 to 16 (≈ 1.55 to 24.9 µM) | < 1 | – | – | –
CNCC1=CC[C@@H](N)[C@@H](O[C@H]2[C@H](O)[C@@H](O[C@H]3OC[C@](C)(O)[C@H](NC)[C@H]3O)[C@H](NC(=O)C3(O)CNC3)C[C@@H]2N)O1 [Example 61] | – | – | 1 to 16 (≈ 1.78 to 28.5 µM) | < 1 | 1
CN[C@@H]1[C@@H](O)[C@@H](O[C@@H]2[C@@H](O)[C@H](O[C@H]3OC(CNCCO)=CC[C@H]3N)[C@@H](N)C[C@H]2NC(=O)C2(O)CC(N)C2)OC[C@]1(C)O (some centres unmarked) [Example 62] | 1 to 16 (≈ 1.65 to 26.5 µM) | < 1 | – | – | –
CN[C@@H]1[C@@H](O)[C@@H](O[C@@H]2[C@@H](O)[C@H](O[C@H]3OC(CNC[C@H]4C[C@H](N)C4)=CC[C@H]3N)[C@@H](N)C[C@H]2NC(=O)C2(O)CNC2)OC[C@]1(C)O [Example 63] | 1 to 16 (≈ 1.59 to 25.4 µM) | < 1 | – | – | –
CN[C@@H]1[C@@H](O)[C@@H](O[C@@H]2[C@@H](O)[C@H](O[C@H]3OC(CNC[C@@H]4C[C@H](N)CN4)=CC[C@H]3N)[C@@H](N)C[C@H]2NC(=O)[C@@H](O)CN)OC[C@]1(C)O [Example 65, 6′-(Methyl-4(S)-amino-pyrrolidin-2(S)-yl)-1-(3-amino-2(S)-hydroxy-propionyl)-sisomicin] | 1 to 16 (≈ 1.58 to 25.3 µM) | 1 to 16 (≈ 1.58 to 25.3 µM) | – | – | –
CN[C@@H]1[C@@H](O)[C@@H](O[C@@H]2[C@@H](O)[C@H](O[C@H]3OC(CNCC4(CN)CC4)=CC[C@H]3N)[C@@H](N)C[C@H]2NC(=O)[C@@H](O)CN)OC[C@]1(C)O [Example 66, 6′-(Methyl-1-aminomethyl-cyclopropyl)-1-(3-amino-2(S)-hydroxy-propionyl)-sisomicin] | 1 to 16 (≈ 1.62 to 25.9 µM) | < 1 | – | – | –
CN[C@@H]1[C@@H](O)[C@@H](O[C@@H]2[C@@H](O)[C@H](O[C@H]3OC(CNCC4(N)CC4)=CC[C@H]3N)[C@@H](N)C[C@H]2NC(=O)[C@@H](O)CN)OC[C@]1(C)O [Example 67, 6′-(Methyl-1-Amino-cyclopropyl)-1-(3-amino-2(S)-hydroxy-propionyl)-sisomicin] | 1 to 16 (≈ 1.66 to 26.5 µM) | 1 to 16 (≈ 1.66 to 26.5 µM) | – | – | –
CN[C@@H]1[C@@H](O)[C@@H](O[C@@H]2[C@@H](O)[C@H](O[C@H]3OC(CNCC(O)CCN)=CC[C@H]3N)[C@@H](N)C[C@H]2NC(=O)[C@@H](O)CN)OC[C@]1(C)O (stereo partly drawn) [Example 68, 6′-(2-Hydroxy-4-amino-butyl)-1-(3-amino-2(S)-hydroxy-propionyl)-sisomicin] | 1 to 16 (≈ 1.61 to 25.7 µM) | 1 to 16 (≈ 1.61 to 25.7 µM) | – | – | –
CN[C@@H]1[C@@H](O)[C@@H](O[C@@H]2[C@@H](O)[C@H](O[C@H]3OC(CNC[C@H]4C[C@@H](N)[C@@H](O)C4)=CC[C@H]3N)[C@@H](N)C[C@H]2NC(=O)[C@@H](O)CN)OC[C@]1(C)O [Example 69, 6′-(Methyl-1(R)-amino-2(S)-hydroxy-cyclopent-4(S)-yl)-1-(3-amino-2(S)-hydroxy-propionyl)-sisomicin] | 1 to 16 (≈ 1.54 to 24.7 µM) | < 1 | – | – | –
CN[C@@H]1[C@@H](O)[C@@H](O[C@@H]2[C@@H](O)[C@H](O[C@H]3OC(CNCCC4(O)CNC4)=CC[C@H]3N)[C@@H](N)C[C@H]2NC(=O)[C@@H](O)CN)OC[C@]1(C)O [Example 70, 6′-(Ethyl-2-(3-hydroxy-azetidin-3-yl))-1-(3-amino-2(S)-hydroxy-propionyl)-sisomicin] | > 16 | 1 to 16 (≈ 1.58 to 25.2 µM) | – | – | –
CN[C@@H]1[C@@H](O)[C@@H](O[C@@H]2[C@@H](O)[C@H](O[C@H]3OC(CNCC4CC4)=CC[C@H]3N)[C@@H](N)C[C@H]2NC(=O)C(O)C2CNC2)OC[C@]1(C)O (some centres unmarked) [Example 71, 6′-Methylcyclopropyl-1-(2-(azetidin-3-yl)-2-hydroxy-acetyl)-sisomicin] | > 16 | 1 to 16 (≈ 1.63 to 26 µM) | – | – | –
CN[C@@H]1[C@@H](O)[C@@H](O[C@@H]2[C@@H](O)[C@H](O[C@H]3OC(CNC[C@H]4C[C@H](N)C4)=CC[C@H]3N)[C@@H](N)C[C@H]2NC(=O)C(O)C2CNC2)OC[C@]1(C)O (stereo partly drawn) [Example 72, 6′-(Methyl-trans-3-amino-cyclobutyl)-1-(2-(azetidin-3-yl)-2-hydroxy-acetyl)-sisomicin] | 1 to 16 (≈ 1.55 to 24.9 µM) | 1 to 16 (≈ 1.55 to 24.9 µM) | – | – | –
CN[C@@H]1[C@@H](O)[C@@H](O[C@@H]2[C@@H](O)[C@H](O[C@H]3OC(CNCC4CNC4)=CC[C@H]3N)[C@@H](N)C[C@H]2NC(=O)[C@@H](O)CN)OC[C@]1(C)O [Example 73, 6′-(Methyl-azetidin-3-yl)-1-(3-amino-2(S)-hydroxy-propionyl)-sisomicin] | 1 to 16 (≈ 1.66 to 26.5 µM) | 1 to 16 (≈ 1.66 to 26.5 µM) | – | – | –
CN[C@@H]1[C@@H](O)[C@@H](O[C@@H]2[C@@H](O)[C@H](O[C@H]3OC(CNCC4(CN)CC4)=CC[C@H]3N)[C@@H](N)C[C@H]2NC(=O)C(O)C2CNC2)OC[C@]1(C)O (some centres unmarked) [Example 74, 6′-(Methyl-1-aminomethyl-cyclopropyl)-1-(2-(azetidin-3-yl)-2-hydroxy-acetyl)-sisomicin] | > 16 | 1 to 16 (≈ 1.55 to 24.9 µM) | – | – | –
CN[C@@H]1[C@@H](O)[C@@H](O[C@@H]2[C@@H](O)[C@H](O[C@H]3OC(CNCCO)=CC[C@H]3N)[C@@H](N)C[C@H]2NC(=O)C(O)C2CNC2)OC[C@]1(C)O (some centres unmarked) [Example 75, 6′-(2-Hydroxy-ethyl)-1-(2-(azetidin-3-yl)-2-hydroxy-acetyl)-sisomicin] | > 16 | 1 to 16 (≈ 1.65 to 26.5 µM) | – | – | –
CN[C@@H]1[C@@H](O)[C@@H](O[C@@H]2[C@@H](O)[C@H](O[C@H]3OC(CNCCCN)=CC[C@H]3N)[C@@H](N)C[C@H]2NC(=O)C(O)C2CNC2)OC[C@]1(C)O (some centres unmarked) [Example 76, 6′-(3-Amino-propyl)-1-(2-(azetidin-3-yl)-2-hydroxy-acetyl)-sisomicin] | 1 to 16 (≈ 1.62 to 25.9 µM) | 1 to 16 (≈ 1.62 to 25.9 µM) | – | – | –
CN[C@@H]1[C@@H](O)[C@@H](O[C@@H]2[C@@H](O)[C@H](O[C@H]3OC(CNCC(O)CCN)=CC[C@H]3N)[C@@H](N)C[C@H]2NC(=O)C(O)C2CNC2)OC[C@]1(C)O (some centres unmarked) [Example 77, 6′-(2-Hydroxy-4-amino-butyl)-1-(2-(azetidin-3-yl)-2-hydroxy-acetyl)-sisomicin] | 1 to 16 (≈ 1.54 to 24.7 µM) | 1 to 16 (≈ 1.54 to 24.7 µM) | – | – | –
CN[C@@H]1[C@@H](O)[C@@H](O[C@@H]2[C@@H](O)[C@H](O[C@H]3OC(CNC[C@H]4C[C@H](N)C4)=CC[C@H]3N)[C@@H](N)C[C@H]2NC(=O)C2(O)CCNC2)OC[C@]1(C)O (stereo partly drawn) [Example 78, 6′-(Methyl-trans-3-amino-cyclobutyl)-1-(3-hydroxy-pyrrolidin-3-yl-acetyl)-sisomicin] | 1 to 16 (≈ 1.55 to 24.9 µM) | < 1 | – | – | –
CN[C@@H]1[C@@H](O)[C@@H](O[C@@H]2[C@@H](O)[C@H](O[C@H]3OC(CNCC4(CN)CC4)=CC[C@H]3N)[C@@H](N)C[C@H]2NC(=O)C2(O)CCNC2)OC[C@]1(C)O (some centres unmarked) [Example 79] | > 16 | 1 to 16 (≈ 1.55 to 24.9 µM) | – | – | –
CN[C@@H]1[C@@H](O)[C@@H](O[C@@H]2[C@@H](O)[C@H](O[C@H]3OC(CNCCCC(O)CN)=CC[C@H]3N)[C@@H](N)C[C@H]2NC(=O)[C@@H](O)CN)OC[C@]1(C)O (stereo partly drawn) [Example 80, 6′-(4-Hydroxy-5-amino-pentyl)-1-(3-amino-2(S)-hydroxy-propionyl)-sisomicin] | < 1 | < 1 | – | – | –
CN[C@@H]1[C@@H](O)[C@@H](O[C@@H]2[C@@H](O)[C@H](O[C@H]3OC(CNCCNC4CNC4)=CC[C@H]3N)[C@@H](N)C[C@H]2NC(=O)[C@@H](O)CN)OC[C@]1(C)O [Example 81, 6′-(N-(Azetidin-3-yl)-2-amino-ethyl)-1-(3-amino-2(S)-hydroxy-propionyl)-sisomicin] | > 16 | 1 to 16 (≈ 1.58 to 25.3 µM) | – | – | –
CN[C@@H]1[C@@H](O)[C@@H](O[C@@H]2[C@@H](O)[C@H](O[C@H]3OC(CNCC(O)CN)=CC[C@H]3N)[C@@H](N)C[C@H]2NC(=O)C(O)C2CNC2)OC[C@]1(C)O (some centres unmarked) [Example 82, 6′-(2-Hydroxy-3-amino-propyl)-1-(2-(azetidin-3-yl)-2-hydroxy-acetyl)-sisomicin] | > 16 | 1 to 16 (≈ 1.58 to 25.2 µM) | – | – | –
CN[C@@H]1[C@@H](O)[C@@H](O[C@@H]2[C@@H](O)[C@H](O[C@H]3OC(CNCC4(O)CC(N)C4)=CC[C@H]3N)[C@@H](N)C[C@H]2NC(=O)C(O)C2CNC2)OC[C@]1(C)O (some centres unmarked) [Example 83, 6′-(Methyl-3-amino-1-hydroxy-cyclobutyl)-1-(2-(azetidin-3-yl)-2-hydroxy-acetyl)-sisomicin] | > 16 | 1 to 16 (≈ 1.52 to 24.3 µM) | – | – | –
CN[C@@H]1[C@@H](O)[C@@H](O[C@@H]2[C@@H](O)[C@H](O[C@H]3OC(CN)=CC[C@H]3NCC3CCNC3)[C@@H](N)C[C@H]2NC(=O)[C@@H](O)CCN)OC[C@]1(C)O (stereo partly drawn) [Example 84, 2′-(Methyl-pyrrolidin-3-yl)-1-(4-amino-2(S)-hydroxy-butyryl)-sisomicin] | 1 to 16 (≈ 1.58 to 25.3 µM) | < 1 | – | – | –
CN[C@@H]1[C@@H](O)[C@@H](O[C@@H]2[C@@H](O)[C@H](O[C@H]3OC(CN)=CC[C@H]3NCC3CCCN3)[C@@H](N)C[C@H]2NC(=O)[C@@H](O)CCN)OC[C@]1(C)O (stereo partly drawn) [Example 85, 2′-(Methyl-pyrrolidin-2-yl)-1-(4-amino-2(S)-hydroxy-butyryl)-sisomicin] | 1 to 16 (≈ 1.58 to 25.3 µM) | < 1 | – | – | –
